# Results as given in PubChem BioAssay AID2060886 (Molecular Pharmacology Branch, DTP, NCI, 2025).
# System: 653999-131-R-J2-PDC complex spheroids, growth inhibition
# Assay: Anticancer human tumor 653999-131-R-J2-PDC patient-derived lung adenocarcinoma cell line growth inhibition [RAS]
# Details: for viability, T/C: stronger effect = lower value
# Source text: RAS pathway inhibitors in Combinations in Complex Spheroids
# A high-throughput screen of multi-cell type tumor spheroids was designed to identify active combinations of RAS pathway inhibitors and targeted small molecules. Complex spheroids include a stromal component modeled by human endothelial cells (HUVEC) and fibroblasts modeled by human mesenchymal stem cells (MSCs). The concentration ranges selected for each drug and investigational agent were based upon clinically achievable concentrations if the clinical Cmax of the agent was known.
# Compounds. The drugs and investigational agents: abemaciclib (NSC768073), cobimetinib (NSC768068), divarasib (GDC6063, NSC841802), docetaxel (NSC628503), GDC-1971 (RLY-1971, NSC841576), gemcitabine (NSC613327), inavolisib (NSC800729), ipatasertib (NSC767898), KB-0742 (NSC834161), MRTX-1133 (NSC836407), osimertinib (NSC779217), RMC-4630 (NSC839698), RMC-6236 (NSC851965), RMC-6291 (NSC852671), Ro-3306 (NSC812927), sapanisertib (NSC764658), SN-38 (NSC673596), staurosporine (NSC755774), SY5609 (NSC837396), and tovorafenib (DAY101, NSC766906), were obtained from the National Cancer Institute (NCI) Developmental Therapeutics Program Chemical Repository. The FDA-approved anticancer drug set is available from the NCI Developmental Therapeutics Program. […] The stock solutions were prepared in dimethyl sulfoxide (DMSO, Sigma-Aldrich, St. Louis, MO, cat. D2650) at 800-fold the tested concentration and stored at -70 degrees C prior to their use. All drugs and investigational agents were tested over a range starting from a high concentration at or near the clinical Cmax and decreasing in half-log increments. If the clinical Cmax for an agent had not been determined, the highest concentration tested was 10 microM.
# Cell Culture. All cells were maintained in an incubator at 37 degrees C and 5% CO2 with 95% humidity. The PDC lines were cultured according to standard operating procedures established by the NCI PDMR. All PDCs were thawed and cultured in Matrigel-coated flasks prepared with a working solution of 1X Ham's F-12 nutrient mix, without supplementation (Invitrogen, Waltham, MA, cat. 11765054), 100 U/mL penicillin-streptomycin (Invitrogen, cat. 15140122), and 2.5% Matrigel (Corning Inc., Corning, NY, cat. 354248) for the first three passages. The 362531-283-R-J2-PDC and 782815-120-R-J1-PDC lines were cultured in 6C/Colon 1B media, which includes advanced DMEM/F-12 (Thermo Fisher Scientific, cat. 12634028), 10 mM HEPES (Thermo Fisher Scientific, cat. 15630080), 1X GlutaMAX supplement (Thermo Fisher Scientific, cat. 35050061), 0.1 mg/mL primocin (InvivoGen, San Diego, CA, cat. ant-pm-2), 10% defined fetal bovine serum, heat inactivated (HyClone Laboratories Inc., Logan, UT, cat. SH30070.03HI), 50% L-WRN conditioned media (ATCC, cat. CRL-3276), 1.25 mM N-Acetyl-L-cysteine (Sigma-Aldrich, cat. A9165), 10 mM nicotinamide (Sigma-Aldrich, cat. N0636), 1X B-27 supplement (Thermo Fisher Scientific, cat. 17504044), 1X N-2 supplement (Thermo Fisher Scientific, cat. 17502048), 50 ng/mL human EGF (Thermo Fisher Scientific, cat. PHG0311), and 10 microM Y-27632 dihydrochloride (Tocris Bioscience, cat. 1254). The K12877-001-R-J1-PDC line was cultured in 6I media, which includes all 6C/Colon 1B media plus 10 ng/mL human FGF-10 (PeproTech, cat. 100-26), 1 ng/mL human FGF-2 (PeproTech, cat. 100-18B), 1 µM prostaglandin E2 (Tocris Bioscience, cat. 2296), […] hydrocortisone (Sigma-Aldrich, cat. H4001), and […] bovine insulin (Sigma-Aldrich, cat. I6634). The K86415-001-R-J1-PDC line was cultured in 6D media, which includes all 6C/Colon 1B media components minus the L-WRN conditioned media. The 485176-168-R4-J1-PDC was cultured in PANC media, which includes all 6C/Colon 1B media plus 100 ng/mL human FGF-10 (PeproTech, cat. 100-26), 500 nM SB-431542 (Selleckchem, cat. S1067), and 10 nM gastrin (Tocris Bioscience, cat. 3006). […]
# 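Further: spheroids exposed to the agents for seven days before the readout.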
structure (smiles),measurement,setting,value
CC1(C)CCC(Nc2ncc(C(F)(F)F)c(-c3c[nH]c4c(P(C)(C)=O)c(C#N)ccc34)n2)CN1 (stereo not drawn) + CCn1c(-c2cc(N3CCN(C)CC3)cnc2C(C)OC)c2c3cc(ccc31)-c1csc(n1)CC(NC(=O)C1CC1C)C(=O)N1CCCC(N1)C(=O)OCC(C)(C)C2,IC50,"curve of first compound, second compound 0.000949 µM",> 300 nM
same,IC50,"curve of first compound, second compound 0.003 µM",< 0.949 nM
same,IC50,"curve of first compound, second compound 0.00949 µM",< 0.949 nM
same,IC50,"curve of first compound, second compound 0.03 µM",< 0.949 nM
same,IC50,"curve of first compound, second compound 0.0949 µM",< 0.949 nM
same,IC50,"curve of first compound, second compound 0.3 µM",< 0.949 nM
same,"viability, T/C","second compound 0.000949 µM, first compound 0.000949 µM",60.9%
same,"viability, T/C","second compound 0.000949 µM, first compound 0.003 µM",58.4%
same,"viability, T/C","second compound 0.000949 µM, first compound 0.00949 µM",56.4%
same,"viability, T/C","second compound 0.000949 µM, first compound 0.03 µM",45.1%
same,"viability, T/C","second compound 0.000949 µM, first compound 0.0949 µM",56.4%
same,"viability, T/C","second compound 0.000949 µM, first compound 0.3 µM",61.2%
same,"viability, T/C","second compound 0.003 µM, first compound 0.000949 µM",51%
same,"viability, T/C","second compound 0.003 µM, first compound 0.003 µM",41.6%
same,"viability, T/C","second compound 0.003 µM, first compound 0.00949 µM",40.8%
same,"viability, T/C","second compound 0.003 µM, first compound 0.03 µM",44.7%
same,"viability, T/C","second compound 0.003 µM, first compound 0.0949 µM",41.1%
same,"viability, T/C","second compound 0.003 µM, first compound 0.3 µM",38.2%
same,"viability, T/C","second compound 0.00949 µM, first compound 0.000949 µM",35.9%
same,"viability, T/C","second compound 0.00949 µM, first compound 0.003 µM",24.3%
same,"viability, T/C","second compound 0.00949 µM, first compound 0.00949 µM",21.4%
same,"viability, T/C","second compound 0.00949 µM, first compound 0.03 µM",21.6%
same,"viability, T/C","second compound 0.00949 µM, first compound 0.0949 µM",27.6%
same,"viability, T/C","second compound 0.00949 µM, first compound 0.3 µM",22.3%
same,"viability, T/C","second compound 0.03 µM, first compound 0.000949 µM",17.8%
same,"viability, T/C","second compound 0.03 µM, first compound 0.003 µM",18.3%
same,"viability, T/C","second compound 0.03 µM, first compound 0.00949 µM",17.4%
same,"viability, T/C","second compound 0.03 µM, first compound 0.03 µM",13.4%
same,"viability, T/C","second compound 0.03 µM, first compound 0.0949 µM",15.9%
same,"viability, T/C","second compound 0.03 µM, first compound 0.3 µM",16.5%
same,"viability, T/C","second compound 0.0949 µM, first compound 0.000949 µM",16.4%
same,"viability, T/C","second compound 0.0949 µM, first compound 0.003 µM",17.8%
same,"viability, T/C","second compound 0.0949 µM, first compound 0.00949 µM",14.5%
same,"viability, T/C","second compound 0.0949 µM, first compound 0.03 µM",14.4%
same,"viability, T/C","second compound 0.0949 µM, first compound 0.0949 µM",14.1%
same,"viability, T/C","second compound 0.0949 µM, first compound 0.3 µM",16.3%
same,"viability, T/C","second compound 0.3 µM, first compound 0.000949 µM",14.5%
same,"viability, T/C","second compound 0.3 µM, first compound 0.003 µM",15.2%
same,"viability, T/C","second compound 0.3 µM, first compound 0.00949 µM",14.7%
same,"viability, T/C","second compound 0.3 µM, first compound 0.03 µM",14.8%
same,"viability, T/C","second compound 0.3 µM, first compound 0.0949 µM",13.7%
same,"viability, T/C","second compound 0.3 µM, first compound 0.3 µM",15.7%
CCn1c(-c2cccnc2C(C)OC)c2c3cc(ccc31)N1CCOC(CC(NC(=O)C(C(C)C)N(C)C(=O)C3(F)CCN(C(=O)C#CC(C)(C)N(C)C)CC3)C(=O)N3CCCC(N3)C(=O)OCC(C)(C)C2)C1 (stereo not drawn),"viability, T/C",compound 0.003 µM,95.1% [middle of 8 runs]
same,"viability, T/C",compound 0.00949 µM,99.5% [middle of 8 runs]
same,"viability, T/C",compound 0.03 µM,104% [middle of 8 runs]
same,"viability, T/C",compound 0.0949 µM,99.9% [middle of 8 runs]
same,"viability, T/C",compound 0.3 µM,107% [middle of 8 runs]
same,IC50,"compound alone, run of 08/20/2024",> 300 nM
